Among the data in BindingDB's records for doi:10.7270/Q2NP26K8 (n/a, 1992) are IC50 values, retold here.

Common to all, as to assay: Inhibition of guinea pig heart Phosphodiesterase 3
Assay [1] addresses PDE3 (Cavia porcellus).
Assay [2] has as its target PDE3 (Cavia porcellus). The source holds these as a separate data set.
The target of assay [3] is PDE3 (Cavia porcellus). The source holds these as a separate data set.

A word on the pIC50: it is −log10 of the IC50, conventionally taken in molar units.

The structures appear in SMILES notation. pIC50: −log10 of the molar value.

As to `COc1ccc(C(=O)N2CCCc3cc(C4=NNC(=O)S[C@@H]4C)ccc32)cc1OC`, the pIC50 in assay [1] is 7.22; in assay [2], 7.30; in assay [3], 7.22.
